Assay results as given in patent US20260103471A1, “CYCLIC UREA THIAZOLYL COMPOUNDS FOR TREATMENT OF HSV” (Assembly Biosciences, Inc., priority 2022, published 2026).
pEC50: −log10 of the molar value.

What follows are molecules tested on HSV-2 G strain (assay: HSV-2 Antiviral Assay (Vero cells, cell viability)). Conditions: Human alphaherpesvirus 2, Vero, 120 h, Vero cells, 160 TCID50 HSV-2 G strain, 5 days, cell viability.
Type: cell-based
Method in brief: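 Antiviral readout is survival of infected Vero cells: after 5 days at 37 °C with 160 TCID50 HSV-2 G strain plus serially diluted compound (8 points, 3-fold, 0.5% DMSO), WST-8 was added for 3 h and absorbance measured at 460/620 nm. Cells seeded at 1.0×10^4 per well.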

| pEC50 | Compound |
| --- | --- |
| > 7.00 | Cc1nc(N2CCCN(c3ccc(-c4ccccc4F)cc3)C2=O)sc1[S@](C)(=N)=O (single isomer, unassigned) [Compound 143] |
| 6.00 to 7.00 | Cc1nc(N2CCCN(c3ccc(-c4nccc(Cl)c4F)cc3)C2=O)sc1S(N)(=O)=O [Compound 37] |
| > 7.00 | COc1c(F)cc(F)cc1-c1ccc(N2C[C@@H](C(F)(F)F)CN(c3nc(C)c(S(N)(=O)=O)s3)C2=O)cc1 (single isomer, unassigned) [Compound 373] |
| 5.30 to 6.00 | Cc1nc(N2CCCN(c3ccc(-c4cccc(S(C)(=O)=O)c4)cc3)C2=O)sc1S(N)(=O)=O [Compound 201] |
| > 7.00 | Cc1nc(N2CCCN(c3ccc(-c4snc5ccc(-c6ccccc6)cc45)cc3)C2=O)sc1S(N)(=O)=O [Compound 309] |
| > 7.00 | Cc1nc(N2C[C@@H](C)CN(c3ccc(-c4ccccc4F)cc3)C2=O)sc1S(N)(=O)=O [Compound 317] |
| > 7.00 | COCCNS(=O)(=O)c1sc(N2CCCN(c3ccc(-c4cc(F)ccc4F)cc3)C2=O)nc1C [Compound 387] |
| > 7.00 | Cc1nc(N2CCCCN(c3ccc(-c4cccc5ncsc45)cc3)C2=O)sc1S(C)(=N)=O (centres unmarked) [Compound 428] |
| > 7.00 | COc1ccc(-c2ccc(N3CCCN(c4nc(C)c(S(N)(=O)=O)s4)C3=O)cc2)c2cnn(C)c12 [Compound 58] |
| 6.00 to 7.00 | CN=S(C)(=O)c1sc(N2CCCN(c3ccc(-c4ccccc4F)cc3)C2=O)nc1C (centres unmarked) [Compound 145] |
| 6.00 to 7.00 | Cc1nc(N2CCCN(c3ccc(-c4cc(C(F)(F)F)cc5c4c(F)cn5C)cc3)C2=O)sc1S(N)(=O)=O [Compound 297] |
| > 7.00 | Cc1nc(N2C[C@H](C(C)(C)F)CN(c3ccc(-c4cc(F)ccc4F)cc3)C2=O)sc1S(N)(=O)=O (single isomer, unassigned) [Compound 352] |
| > 7.00 | Cc1nc(N2CC(C(F)F)CN(c3ccc(-c4cc(F)ccc4F)cc3)C2=O)sc1S(N)(=O)=O (centres unmarked) [Compound 349] |
| 6.00 to 7.00 | Cc1nc(N2CCCN(c3ccc(-c4ccccc4OC4CC4)cc3)C2=O)sc1S(N)(=O)=O [Compound 200] |
| 6.00 to 7.00 | Cc1nc(N2CCCN(c3ccc(-c4cc(F)ccc4F)cc3)C2=O)sc1S(=O)(=O)N1CC[C@H](N)C1 [Compound 398] |
| > 7.00 | Cc1cccc(-c2ccc(N3CCCN(c4nc(C)c(S(N)(=O)=O)s4)C3=O)cc2)c1C [Compound 195] |
| > 7.00 | Cc1nc(N2CCCN(c3ccc(-c4cccc5cnsc45)cc3)C2=O)sc1S(N)(=O)=O [Compound 258] |
| 5.30 to 6.00 | Cc1nc(N2CCCN(c3ccc(-c4ccnc5ncsc45)cc3)C2=O)sc1S(N)(=O)=O [Compound 272] |

| pEC50 | Compound |
| --- | --- |
| > 7.00 | Cc1nc(N2C[C@@H](C(C)(C)O)CN(c3ccc(-c4cc(F)ccc4F)cc3)C2=O)sc1S(N)(=O)=O (single isomer, unassigned) [Compound 344] |
| > 7.00 | Cc1nc(N2CCCN(c3ccc(-c4cc(F)ccn4)cc3)C2=O)sc1S(=O)(=O)NC1CC1 [Compound 408] |
| 6.00 to 7.00 | Cc1nc(N2CCCN(c3ccc(-c4ccc(F)cc4F)cc3)C2=O)sc1S(N)(=O)=O [Compound 187] |
| > 7.00 | Cc1nc(N2C[C@@H](C)CN(c3ccc(-c4ccccc4)cc3)C2=O)sc1S(N)(=O)=O (single isomer, unassigned) [Compound 328] |
| 5.30 to 6.00 | Cc1nc(N2CCCN(c3ccc(-c4ccccc4)c4sncc34)C2=O)sc1S(N)(=O)=O [Compound 312] |
| > 7.00 | Cc1nc(N2CCCN(c3ccc(-c4cc(F)ccc4F)cc3)C2=O)sc1S(=O)(=O)NCCC(C)(C)O [Compound 393] |
| > 7.00 | COc1c(F)cc(F)cc1-c1ccc(N2C[C@H](C(F)(F)F)CN(c3nc(C)c(S(N)(=O)=O)s3)C2=O)cc1 (single isomer, unassigned) [Compound 374] |
| 6.00 to 7.00 | Cc1nc(N2CCCN(c3ccc(-c4ccccc4F)cc3)C2=O)sc1S(=O)(=O)C(F)F [Compound 412, 1-(5-((difluoromethyl)sulfonyl)-4-methylthiazol-2-yl)-3-(2′-fluoro-[1,1′-biphenyl]-4-yl)tetrahydropyrimidin-2(1H)-one] |
| 5.30 to 6.00 | CO[C@H]1CN(c2ccc(-c3cc(F)ccc3F)cc2)C(=O)N(c2nc(C)c(S(N)(=O)=O)s2)C1 (single isomer, unassigned) [Compound 359] |
| > 7.00 | Cc1nc(N2CCCN(c3ccc(-c4cc(F)ccc4F)cc3)C2=O)sc1S(=O)(=O)N[C@@H]1CC[C@@H](O)C1 [Compound 400] |
| > 7.00 | Cc1nc(N2C[C@H](O)CN(c3ccc(-c4cc(F)ccc4F)cc3)C2=O)sc1S(N)(=O)=O (single isomer, unassigned) [Compound 354] |
| 6.00 to 7.00 | Cc1nc(N2CCCN(c3ccc(-c4cccc(C5CCC5)c4)cc3)C2=O)sc1S(N)(=O)=O [Compound 199] |
| > 7.00 | Cc1nc(N2C[C@@H](C#N)CN(c3ccc(-c4cc(F)ccc4F)cc3)C2=O)sc1S(N)(=O)=O (single isomer, unassigned) [Compound 362] |
| > 7.00 | Cc1nc(N2CCCN(c3ccc(-c4cc(C(F)(F)F)cc5nsnc45)cc3)C2=O)sc1S(N)(=O)=O [Compound 244] |
| 6.00 to 7.00 | Cc1nc(N2CCCN(c3ccc(-c4ccccc4F)cc3)C2=O)sc1S(C)(=N)=O (centres unmarked) [Compound 142] |
| > 7.00 | Cc1nc(N2C(=O)N(c3ccc(-c4cc(F)ccc4F)cc3)CC[C@@H]2C)sc1S(N)(=O)=O (single isomer, unassigned) [Compound 109] |
| 6.00 to 7.00 | Cc1nc(N2C[C@@H](C(N)=O)CN(c3ccc(-c4cc(F)ccc4F)cc3)C2=O)sc1S(N)(=O)=O (single isomer, unassigned) [Compound 383] |
| > 7.00 | Cc1nc(N2CC3(COC3)CN(c3ccc(-c4cc(F)ccn4)cc3)C2=O)sc1S(N)(=O)=O [Compound 379] |

Same assay, conditions: Vero cells, 160 TCID50 HSV-2 G strain, 5 days, cell viability

| pEC50 | Compound |
| --- | --- |
| > 7.00 | Cc1nc(N2C[C@H](C)CN(c3ccc(-c4ccccc4F)cc3)C2=O)sc1S(N)(=O)=O [Compound 324] |

What follows are molecules tested on HSV-1 (assay: HSV-1 Antiviral Assay (Vero cells, cell viability)). Conditions: Human alphaherpesvirus 1, 96 h; Vero cells, 80 TCID50 HSV-1, 4 days, cell viability; read-out: HSV-1 EC50.
Type: cell-based
Procedure: Vero cells were cultured in Dulbecco's Modified Eagle Medium (DMVEM) supplemented with […] and 100 units/mL penicillin and streptomycin. The cells were passaged 2-3 times per week to maintain sub-confluent densities.
Vero cells were seeded into 96-well plates at a density of 2.5×10^3 cells per well and allowed to attach overnight. Following attachment, the media was replaced with 50 μL of infection medium (DMVEM supplemented with 2% fetal bovine serum and 100 units/mL penicillin and streptomycin). A Tecan D300e digital dispenser was then used to add compounds to the culture using an 8-point 3-fold serial dilution format. The DMSO concentration was normalized to 0.5% for all treatments. Following compound addition, 50 μL of infection medium containing 80 TCID50 HSV-1 was added to the cells and incubated at 37° C. for 4 days. After the incubation, the plates were equilibrated to room temperature, the media was removed, and […] a 1:1 dilution of Cell titer glow and phosphate buffered saline was added to the cells. Following a 5-minute incubation, cell viability was quantified by measuring luminance using a Tecan Infinite M1000 Pro plate reader.

| pEC50 | Compound |
| --- | --- |
| 5.30 to 6.00 | C#Cc1cc(F)c(-c2ccc(N3CCCN(c4nc(C)c(S(N)(=O)=O)s4)C3=O)cc2)cc1F [Compound 29] |
| 6.00 to 7.00 | Cc1nc(N2CCCN(c3ccc(-c4cc(F)ccc4F)cc3)C2=O)sc1S(=O)(=O)N1CCNCC1 [Compound 135] |
| 6.00 to 7.00 | Cc1nc(N2CCCN(c3ccc(-c4n[nH]c5ccccc45)cc3)C2=O)sc1S(N)(=O)=O [Compound 91] |
| 6.00 to 7.00 | Cc1nc(N2CCCN(c3ccc(-c4cccc5c4ncn5C)cc3)C2=O)sc1S(N)(=O)=O [Compound 61] |
| 6.00 to 7.00 | Cc1nc(N2CCCN(c3ccc(-c4cnccn4)cc3)C2=O)sc1S(N)(=O)=O [Compound 39] |
| 6.00 to 7.00 | Cc1nc(N2CCCN(Cc3cccc(-c4ccccc4)c3)C2=O)sc1S(=O)(=O)NC1CC1 [Compound 183] |
| 5.30 to 6.00 | CC(=O)NS(=O)(=O)c1sc(N2CCCN(c3ccc(-c4cc(F)ccc4F)cc3)C2=O)nc1C [Compound 137] |
| 6.00 to 7.00 | Cc1nc(N2CCCN(c3ccc(-c4cccc(C(F)(F)F)c4)cc3)C2=O)sc1S(N)(=O)=O [Compound 15] |
| 6.00 to 7.00 | Cc1nc(N2CC3(CC3)CN(c3ccc(-c4ccccc4F)cc3)C2=O)sc1S(C)(=N)=O (centres unmarked) [Compound 158] |
| 6.00 to 7.00 | CNS(=O)(=O)c1sc(N2CCCN(c3ccc(-c4cccc(NC(=O)OC(C)(C)C)n4)cc3)C2=O)nc1C [Compound 125] |
| 6.00 to 7.00 | Cc1nc(N2CCCN(c3ccc(-c4cccc5cccnc45)cc3)C2=O)sc1S(N)(=O)=O [Compound 82] |
| 6.00 to 7.00 | Cc1nc(N2CCCN(c3ccc(-c4cccc(N)n4)cc3)C2=O)sc1S(N)(=O)=O [Compound 33] |
| 5.30 to 6.00 | Cc1nc(N2CCN(c3ccc(-c4cc(F)ccc4F)cc3)C2=O)sc1S(N)(=O)=O [Compound 104] |
| 6.00 to 7.00 | Cc1nc(N2CCCN(c3ccc(-c4cccc5cn(C)nc45)cc3)C2=O)sc1S(N)(=O)=O [Compound 53] |
| > 7.00 | Cc1nc(N2CCCN(c3ccc(-c4cccc5scnc45)cc3)C2=O)sc1S(N)(=O)=O [Compound 71, 2-(3-(4-(Benzo[d]thiazol-4-yl)phenyl)-2-oxotetrahydropyrimidin-1(2H)-yl)-4-methylthiazole-5-sulfonamide] |
| 6.00 to 7.00 | CC[S@@](=N)(=O)c1sc(N2CCCN(c3ccc(-c4cc(F)ccc4F)cc3)C2=O)nc1C (single isomer, unassigned) [Compound 149] |
| > 7.00 | Cc1nc(N2CC3(CC3)CN(c3ccc(-c4ccccc4F)cc3)C2=O)sc1S(N)(=O)=O [Compound 111] |
| 6.00 to 7.00 | CS(=O)(=O)c1cnc(N2CCCN(c3ccc(-c4cc(F)ccc4F)cc3)C2=O)s1 [Compound 167] |
| 5.30 to 6.00 | Cc1nc(N2CCCN(c3ccc(-c4nc5ccccc5o4)cc3)C2=O)sc1S(N)(=O)=O [Compound 87] |
| 6.00 to 7.00 | Cc1nc(N2CCCN(c3ccc(-c4ccccn4)c(F)c3)C2=O)sc1S(=O)(=O)NC1CC1 [Compound 129] |
| 6.00 to 7.00 | Cc1nc(N2CCCN(c3ccc(-c4nc(C(F)(F)F)cs4)cc3)C2=O)sc1S(N)(=O)=O [Compound 46] |
| 6.00 to 7.00 | Cc1nc(N2CC3(CC3)CN(c3ccc(-c4ccccc4F)cc3)C2=O)sc1[S@](C)(=N)=O (single isomer, unassigned) [Compound 159] |
